{
  "source": "ChEMBL document CHEMBL1123401",
  "about": "“Mapping the turkey erythrocyte beta receptor: a distance geometry approach” (J Med Chem, 1986)",
  "data": [
    {"test_system": "Erythrocyte beta receptor", "assay": "Free energy of binding to turkey erythrocyte beta receptor", "design": "unit not given here", "settings": "Meleagris gallopavo", "values": [
      {"smiles": "C=CCOc1ccccc1OC[C@@H](O)CNC(C)C", "Delta G": -11.6},
      {"smiles": "C[C@H](N)[C@H](O)c1ccc(O)c(O)c1", "Delta G": -9.64},
      {"smiles": "CNC[C@H](O)c1ccc(O)cc1", "Delta G": -6.01},
      {"smiles": "CC(C)NC[C@H](O)c1ccc(O)cc1", "Delta G": -7.54},
      {"smiles": "CCNC[C@H](O)c1ccc(O)c(O)c1", "Delta G": -7.59},
      {"smiles": "CC(C)NC[C@H](O)c1ccc(O)c(NS(C)(=O)=O)c1", "Delta G": -7.36},
      {"smiles": "CC(C)NC[C@H](O)c1cc(O)cc(O)c1", "Delta G": -7.13},
      {"smiles": "CC[C@H](NC(C)C)[C@H](O)c1ccc(NS(C)(=O)=O)cc1", "Delta G": -7.41},
      {"smiles": "CS(=O)(=O)Nc1cc([C@@H](O)CNC2CC2)ccc1O", "Delta G": -8.19},
      {"smiles": "CC(C)NC[C@H](O)c1ccc(NS(C)(=O)=O)c(O)c1", "Delta G": -6.29},
      {"smiles": "CC(C)NC[C@@H](O)COc1cccc2ccccc12", "Delta G": -11.7},
      {"smiles": "CC(C)(C)NC[C@H](O)c1ccc(O)c(CO)c1", "Delta G": -8.23},
      {"smiles": "CC(C)NCC(O)c1ccc(O)c(O)c1", "note": "(configuration not stated)", "Delta G": -9.18},
      {"smiles": "CC(C)(C)NC[C@H](O)c1cc(O)cc(CO)c1", "Delta G": -6.58},
      {"smiles": "CC(C)NC[C@H](O)COc1cccc2[nH]ccc12", "Delta G": -13},
      {"smiles": "CC(C)NC[C@H](O)c1ccc(O)c(CS(C)(=O)=O)c1", "Delta G": -7.85},
      {"smiles": "CC(Cc1ccc(O)cc1)NC[C@H](O)c1cc(O)cc(O)c1", "note": "(some centres not stated)", "Delta G": -8.62},
      {"smiles": "CC(C)(Cc1ccc(O)cc1)NC[C@H](O)c1ccc(O)c(O)c1", "Delta G": -10},
      {"smiles": "CNC[C@H](O)c1ccc(O)c(O)c1", "Delta G": -7.86},
      {"smiles": "CC(C)(C)NC[C@H](O)COC1=CC=CC2C(=O)C=CC=C12", "note": "(some centres not stated)", "Delta G": -11.9},
      {"smiles": "CC(C)(Cc1ccc(O)cc1)NC[C@H](O)c1cc(O)cc(CO)c1", "Delta G": -7.61},
      {"smiles": "CC(C)NC[C@H](O)c1cccc(O)c1", "Delta G": -7.99},
      {"smiles": "CC(C)NC[C@H](O)COc1cccc2c(O)cccc12", "Delta G": -11.2},
      {"smiles": "CNC[C@H](O)c1cccc(O)c1", "Delta G": -6.72},
      {"smiles": "O[C@@H](CNc1ccccc1)c1ccccc1", "Delta G": -5.76},
      {"smiles": "C[C@H](NCCc1ccccc1)[C@H](O)c1ccc(O)cc1", "Delta G": -9.01},
      {"smiles": "COc1ccc(CCNC[C@H](O)COC2=CC=CC3C(=O)C=CC=C23)cc1OC", "note": "(some centres not stated)", "Delta G": -11.3},
      {"smiles": "NC[C@H](O)COc1cccc2ccccc12", "Delta G": -10.9},
      {"smiles": "CN[C@@H](C)[C@H](O)c1ccc(O)cc1", "Delta G": -6.47},
      {"smiles": "C[C@H](N)[C@H](O)c1ccc(O)cc1", "Delta G": -6.27},
      {"smiles": "C=CCc1cccc(OC[C@@H](O)CNC(C)C)c1", "Delta G": -8.82},
      {"smiles": "CC(C)NC[C@H](O)COc1ccc(O)cc1", "Delta G": -8.91},
      {"smiles": "NC[C@H](O)c1cccc(O)c1", "Delta G": -7.23},
      {"smiles": "COc1ccc(CC(C)NC[C@H](O)c2ccc(O)c(CO)c2)cc1", "note": "(some centres not stated)", "Delta G": -7.65},
      {"smiles": "CC(C)NC[C@H](O)c1ccc2ccccc2c1", "Delta G": -9.06},
      {"smiles": "NC[C@H](O)c1ccc(O)c(O)c1", "Delta G": -7.26},
      {"smiles": "Oc1ccc(CCNC[C@H](O)COc2cccc3ccccc23)cc1", "Delta G": -10.9},
      {"smiles": "CC(C)NC[C@H](O)COc1ccccc1I", "Delta G": -12.8},
      {"smiles": "C[C@H](COc1ccccc1)NC[C@H](O)c1ccc(O)cc1", "Delta G": -7.95},
      {"smiles": "CC[C@H](NC(C)C)[C@H](O)c1ccc(O)c(O)c1", "Delta G": -8.02},
      {"smiles": "NC[C@H](O)c1ccc(O)cc1", "Delta G": -5.94},
      {"smiles": "CC(C)(Cc1ccc(O)cc1)NC[C@H](O)COc1cccc2[nH]ccc12", "Delta G": -14.7},
      {"smiles": "CC(Cc1ccc2c(c1)OCO2)NC[C@H](O)c1ccc(O)c(O)c1", "note": "(some centres not stated)", "Delta G": -9.88},
      {"smiles": "CC(C)(Cc1ccccc1)NC[C@H](O)c1ccc(O)c(NS(C)(=O)=O)c1", "Delta G": -9.64},
      {"smiles": "CC(C)NC[C@H](O)c1ccc(NS(C)(=O)=O)cc1", "Delta G": -8.46},
      {"smiles": "CC(=O)Nc1ccc(OC[C@@H](O)CNC(C)C)cc1", "Delta G": -7.54},
      {"smiles": "CC(C)(Cc1ccc(O)cc1)NC[C@H](O)COc1cccc2ccccc12", "Delta G": -11.2},
      {"smiles": "CC(C)NC[C@H](O)c1ccc(O)c2ncccc12", "Delta G": -10.4},
      {"smiles": "CC(C)NC[C@H](O)COc1ccc(O)c(O)c1", "Delta G": -9.13},
      {"smiles": "CC(C)NC[C@H](O)COc1ccc(N)cc1", "Delta G": -8.96},
      {"smiles": "CC(C)(C)NC[C@H](O)COc1cccc2[nH]ccc12", "Delta G": -13.5},
      {"smiles": "CC(CCc1ccccc1)N[C@@H](C)[C@H](O)c1ccc(O)cc1", "note": "(some centres not stated)", "Delta G": -9.55},
      {"smiles": "CNC[C@H](O)c1ccccc1", "Delta G": -6.79},
      {"smiles": "C=CCc1ccccc1OC[C@@H](O)CNC(C)C", "Delta G": -12.1},
      {"smiles": "CC(C)NC[C@H](O)c1ccc(Cl)c(Cl)c1", "Delta G": -8.83},
      {"smiles": "CC(Cc1ccc(O)cc1)NC[C@H](O)c1ccc(O)c(O)c1", "note": "(some centres not stated)", "Delta G": -10.4},
      {"smiles": "CCNC[C@H](O)c1cccc(O)c1", "Delta G": -6.75}
    ]}
  ]
}
